In PMC12357248, “Selectively targeting BCL6 using a small-molecule inhibitor is a potential therapeutic strategy for glioblastoma” (Genes & Diseases, 2025):

Columns and labels:
[1] = tested on: BCL6; test: Western blotting of BCL6 after TMZ treatment; type: cell-based; details: U251, SF268, U87-MG, 24 h
Protocol: Cell lines were treated with drugs, and tumor tissues were collected in a Ripa lysis buffer. Western blotting was performed using antibodies against BCL6 (14895S, Cell Signaling Technology), PARP (poly(ADP-Ribose) polymerase; 9532S, Cell Signaling Technology), γH2AX (phosphorylated form of H2A.X variant histone; 9718S, Cell Signaling Technology), phospho-ERK (4370S, Cell Signaling Technology), ERK (extracellular signal-regulated kinase; 4695T, Cell Signaling Technology), phospho-AKT (4060S, Cell Signaling Technology), AKT (9272S, Cell Signaling Technology), GAPDH (AB0036, ABWAYS), BCL2 (T40056F, ABWAYS), c-MYC (CY5150, ABWAYS).

[2] = tested on: U87-MG-Luc xenograft; test: Intracranial (orthotopic) U87-MG-Luc GBM xenograft; type: in vivo, BALB/c nude mice; details: TMZ 5 mg/kg, YK01 12.5 mg/kg, intraperitoneally
Description: An orthotopic U87-MG GBM-bearing mouse model of BALB/c nude mice was created. Five microlitres of U87-MG-Luc cells (1 × 10^5 cells) were implanted into the left striatum of anaesthetized animals. The burr hole was then filled with bone wax, and the scalp was closed with tissue glue. To assess the growth of the glioma, bioluminescence imaging (in vivo imaging system, Lumina III) was used to determine its size. […]

[3] = molecular target: BCL6^BTB/SMRT interaction (Homo sapiens, UniProt P41182); test: HTRF assay, BCL6-BTB/SMRT interaction; type: binding
[4] = molecular target: T1, eGFP-BCL6 (FL) (Homo sapiens, UniProt P41182); test: BCL6-eGFP-mCherry stability reporter in HEK293T cells; type: cell-based; details: 1 μM
T1 construct: a gene encoding the full-length BCL6 protein fused to eGFP; expressed in transfected cells; host or cells: HEK293T

[5] = molecular target: T2, BCL6^BTB (Homo sapiens, UniProt P41182); test: Luciferase reporter assay, BCL6-BTB-mediated transcriptional repression; type: cell-based; details: even at 20 μM
T2 construct: expressed in transfected cells

[6] = tested on: U87-MG; test: MTS cell viability assay; type: cell-based; details: Homo sapiens, U-87 MG
Protocol: (§1) Cell viability was tested by MTS assay (Promega, USA). 8000 cells were seeded in a 96-well plate and then treated with compounds for 72 h, followed by the addition of 20 μL of MTS and incubation at 37 °C for 2–3 h. Absorbance at 490 nm is measured with the SpectraMax 190 plate reader, and the IC50 value is calculated by GraphPad Prism. In the drug combination assay, combination index (CI) values were calculated using CalcuSyn software. A CI value greater than 1 has a drug antagonistic effect, and a value less than 1 has a synergistic effect.

[7] = tested on: U251; test: MTS cell viability assay; type: cell-based; details: Homo sapiens, U-251
Protocol: as §1

[8] = tested on: SF268; test: MTS cell viability assay; type: cell-based; details: Homo sapiens, SF-268
Protocol: as §1

Cn1nnc2c(C(N)=O)ncn2c1=O [TMZ, temozolomide]
BCL6 expression [1]: up-regulated
U87-MG-luci xenograft growth (bioluminescence) [2]: improved

CNC(=O)COc1cc2cc(Nc3nc(N4C[C@H](C)C[C@H](C)C4)ncc3Cl)ccc2n(C)c1=O [BI3802]
IC50 [3]: 0.0027 µM
effect on eGFP-BCL6 (FL) reporter [4]: degradation
effect on BCL6^BTB [5]: little effect

O=C(O)CCN1C(=O)/C(=C2/C(=O)Nc3ccc(Cl)cc32)SC1=S [FX1]
IC50 [6]: 32 ± 1.12 µM
IC50 [7]: 37.4 ± 1.41 µM
IC50 [8]: 43.9 ± 1.23 µM
